According to publication PMC8346996, “Antiradical Properties of N-Oxide Surfactants—Two in One” (International Journal of Molecular Sciences, 2021):
≈ marks a conversion by molar mass, not a printed value. Where two headings read alike, the source gives them in different places. Marks after values point to notes of the source that are not given here.

Experiments:
human keratinocytes = assay: ROS evaluation (DCF assay), human keratinocytes; format: cell-based; conditions: after ROS induction by DHTTP; surfactant in CMC concentration
Protocol: (§1) Antioxidative properties of the tested surfactant were evaluated. To induce ROS production, a DPPH solution was prepared (C = 2.55 × 10^−3 mol/dm3). Normal fibroblasts and keratinocytes were seeded on flat bottom 96-well tissue culture plates at a density of 10^4 cells/well and allowed to grow in a CO2 incubator at 37°C overnight. Then, culture medium was removed and 200 µL of DPPH solution in DMEM was added to the plate and left for 1 h in a CO2 incubator at 37 °C. After incubation, DPPH solution was removed and ROS production was determined using DCF assay (Life Technologies, Warsaw, Poland). The DCF assay was conducted with 6-carboxy-2′,7′-dichlorodihydrofluorescein diacetate 2′,7′-dichlorofluorescein (carboxy-H2DCFDA). After deacetylation of H2DCFDA to H2DCF or carboxy-H2DCFDA to carboxy-H2DCF, cellular ROS oxidize H2DCF and carboxy-H2DCF to 2′,7′-dichlorofluorescein (DCF) and 2′,7′-carboxydichlorofluorescein (carboxy-DCF), respectively. The carboxy-H2DCFDA was dissolved in sterile DMSO to generate a stock solution of 50 µg/mL. For experiments, the stock solution of carboxy-H2DCFDA was brought to room temperature in the dark and then diluted in a cell culture medium without FBS. After washout of the incubation medium from cells with PBS, the reagent was added to cell culture to a final concentration of 10 µM and for 30 min was incubated at 37 °C in darkness. After incubation, excitation wavelength of 495 nm and emission wavelength of 530 nm were used by a multiwell scanning spectrophotometer (EnSpire Perkin Elmer, Krakow, Poland). In the next stage, surfactant solutions in CMC concentrations were added into cells after 1 h incubation with DHTTP solution. Cells were incubated, and ROS were detected 30 min by a multiwell scanning spectrophotometer (EnSpire Perkin Elmer, Poland).

[1] = parameters: method as in PMID 23098238; conditions: cited from earlier work
primary fibroblasts = assay: ROS evaluation (DCF assay), primary fibroblasts; format: cell-based, human; conditions: after ROS induction by DHTTP; surfactant in CMC concentration
Protocol: as §1

[2] = tested on: normal human keratinocytes (HaCaT); assay: MTT cell viability assay, HaCaT; format: cell-based; conditions: Homo sapiens, HaCaT, MTT
Protocol: (§2) HaCaT (immortalized human keratinocytes from histologically normal skin) cell line was obtained from the CLS Cell Lines Service GmbH (Eppelheim, Germany). HGFs (human gingival fibroblasts) derive from primary cell culture. The cells were isolated according to the procedure described by Saczko et al. and patented by Saczko et al.. Cells were grown in plastic cell culture flasks in Dulbecco’s Modified Eagle’s Medium, supplemented with fetal bovine serum (FBS, Lonza, Morrisville, NC, USA), with 100 IU/mL penicillin, 50 mg streptomycin, and 125 μg amphotericin B (Sigma). The cells were maintained in a humidified atmosphere at 37 °C and 5% CO2. The cells were regularly maintained by systematic passaging. For experimental purposes, the cells were removed by trypsinization (0.25% Trypsin-EDTA, Sigma).
(§3) MTT (Sigma) test was used to determine the viability of HaCaT and HGFs cells. The MTT assay was used to test mitochondrial metabolic functioning. Cells were seeded on flat bottom 96-well tissue culture plates at a density of 10^4 cells/well and allowed to grow in a CO2 incubator at 37 °C overnight. In the case of these studies, the culture medium was removed, surfactant solutions were added, and the cells were exposed for 24 and 48 h to compounds at doses ranging from 50 to 2000 μg/mL. After incubation, MTT assay was applied according to the manufacturer protocol. The absorbance was measured at 570 nm using a multiwell plate reader (EnSpire Multimode Reader, Perkin Elmer). Each experiment was performed in a few independent repetitions. Mean values and standard deviations of all results were calculated. The final results were expressed as the percentage of mitochondrial function relative to untreated control cells.

[3] = MTT cell viability assay, HaCaT; format: cell-based, human; conditions: human, HaCaT cells (immortalized human keratinocytes), evaluated for CMC
Protocol: as §2, §3

[4] = tested on: primary fibroblasts (HGFs); assay: MTT cell viability assay, HGFs; format: cell-based, human; conditions: Homo sapiens, Fibroblast, MTT
Protocol: as §2, §3

[5] = MTT cell viability assay, HGFs; format: cell-based, human; conditions: human, primary human gingival fibroblasts (HGFs), evaluated for CMC; for viability at 24 h: read-out: Viability 24 h HGF’s; for viability at 48 h: read-out: Viability 48 h HGF’s
Protocol: as §2, §3

[6] = parameters: method as in PMID 23098238; conditions: cited from earlier work; remark: listed apart in the source
[7] = DPPH• scavenging kinetics by UV-vis, pseudo-first-order conditions; conditions: for second-order rate constant k2 for the reaction with DPPH•: ethanol, 298 K, deaerated, DPPH• 2.2 × 10^−4 M, surfactant 0.012-0.12 M; for k2 higher in comparison with the CnPDA homolog: reaction with DPPH•
Protocol: After confirming that the absorption maximum at 517 nm of DPPH• is outside the surfactant’s absorption range, the rate of the DPPH•-scavenging reaction of the N-oxides was measured by monitoring the decrease in absorbance of this maximum. To ensure that the decay of DPPH• obeyed pseudo-first-order kinetics, the concentration of surfactants was at least a 54-fold excess of the DPPH• concentration. As explained in SI, the calculated pseudo-first-order rate constants, kobs, increased linearly with the concentration of Cn(DAPANO)2 and CnPDA (shown in SI). The second-order rate constants k2 for the reaction between the N-oxides and DPPH• were determined from the slopes of the linear plots of kobs vs. the concentration of the surfactants and are given in Figure 6.
The measurements were done under deaerated conditions at 298 K in ethanol solutions (2 mL in a 10 mm quartz cuvette) containing DPPH^• (C = 2.2 × 10^−4 M) and a surfactant at each of five different concentrations, namely C1 = 0.12 M, C2 = 0.09 M, C3 = 0.06 M, C4 = 0.03 M, and C5 = 0.012 M. UV−vis spectral changes associated with the undergoing reaction were monitored at 516 nm, using a Varian Cary 50Conc UV−visible Spectrophotometer. The following equations of the calibration curve were used to calculate DPPH^• concentrations in the reaction system: Abs = 4.0189 × C[mM] + 0.00813 (R^2 = 0.9998). The rate of DPPH^• scavenging reaction was determined using pseudo-first-order kinetics (the concentration of CnPDA or Cn(DAPANO)2 was maintained at more than 54-fold excess of the radical concentration); further details are given as Supporting Information.

[8] = Hydrodynamic radius of micelles by dynamic light scattering (DLS); format: physicochemical; conditions: 298 K, surfactant at 100 x CMC
Protocol: The hydrodynamic diameter for CnPDA was determined by the DLS method. The measurements were performed using a Nano Series Zetasizer from Malvern Instruments (UK) with a detection angle of 173°, equipped with a He−Ne laser (632.8 nm) and an ALV 5000 multibit multitau autocorrelator. Before the measurements, the samples were filtered through a filter (with a pore size of 0.2 μm) directly into the optical cell to remove any impurities. All of the DLS measurements were performed at 298 ± 0.1 K and at a surfactant concentration a hundred times higher than the critical micelle concentration (CMC). Each value was obtained as the average of three runs with at least 10 measurements. The DTS software (Nano) was used to evaluate the data.

[9] = Radical scavenging monitored by EPR spectroscopy, GO•; conditions: after 60 min of reaction; C/CMC = 100
Protocol: (§4) We began with an attempt to determine if the N-oxide surfactants can participate in the radical scavenging process when micelles are well-formed. Thus, the reaction mixtures containing a surfactant at C/CMC = 100, which is a typical concentration found in formulations, and GO• or DPPH• at 2 mM were prepared along with the control samples and monitored over time (solutions of DPPH• and GO• without surfactants).
(§5) The scavenging capacity of the surfactants was judged quantitatively by measuring the percentage of remaining GO• and DPPH• after a fixed reaction time. The relative concentration of GO• and DPPH• was calculated from Equation (1):(1) remaining radical%=It/I0×100% where I0 and It correspond to the EPR signal integral intensity of a radical in the absence and presence of the N-oxide surfactants after a fixed time, respectively.
(§6) The antiradical properties were studied by EPR using a Bruker ELEXYS E500 spectrometer equipped with an NMR gaussmeter and frequency counter. A microwave power of 10 mW, a modulation frequency of 100 kHz, a modulation amplitude of 1 G, a time constant of 82 ms, and a conversion time of 164 ms were adopted. The antiradical properties were evaluated against two model radicals: 2,2-diphenyl-1-picrylhydrazyl (DPPH•) and galvinoxyl (GO•). […]

[10] = Radical scavenging monitored by EPR spectroscopy, DPPH•; conditions: after 60 min of reaction; C/CMC = 100
Protocol: as §4, §5, §6

[11] = 24 h incubation, read-out: IC50 HaCaT 24 h
[12] = 48 h incubation, read-out: IC50 HaCaT 48 h
[13] = 24 h incubation, read-out: IC50 HGFs 24 h
[14] = 48 h incubation, read-out: IC50 HGFs 48 h

Structure (SMILES) | radical (ROS) level, DCF fluorescence (human keratinocytes) | CMC [1] | radical (ROS) level, DCF fluorescence (primary fibroblasts) | IC50 [2, 11] [µg/mL] | IC50 [2, 12] [µg/mL] | viability at 24 h [3] [%] | viability at 48 h [3] [%] | IC50 [4, 13] [µg/mL] | IC50 [4, 14] [µg/mL] | viability at 24 h [5] [%] | viability at 48 h [5] [%] | RH DLS [6] | second-order rate constant k2 for the reaction with DPPH• [7] [M⁻¹ s⁻¹] | k2 higher in comparison with the CnPDA homolog [7] [%] | RH DLS [8] [nm] | reduced the number of GO• by [9] [%] | reduced the number of DPPH• by [10] [%]
CCCCCCCCCCCCCCCC(=O)N(CCC[N+](C)(C)[O-])CCC[N+](C)(C)[O-] [C16(DAPANO)2] | not significant decrease in radical level | 1.5·10^−4 a M | not significant decrease in radical level | 29 (≈ 63.4 µM) | 18.2 (≈ 39.8 µM) | 14.7 | 3.9 | 14.3 (≈ 31.2 µM) | 0.76 (≈ 1.66 µM) | 27.8 | 12.3 | 2.38 ^a nm | 0.00138 | 10 |  |  | 
CCCCCCCCCC(=O)NCCC[N+](C)(C)[O-] [C10PDA] |  |  |  | 43.8 (≈ 161 µM) | 41.5 (≈ 152 µM) | 34.7 | 84.8 | 77.9 (≈ 286 µM) | 38.7 (≈ 142 µM) | 98.6 | 20.2 |  | 0.000853 |  | 1.67 |  | 
CCCCCCCCCCCC(=O)NCCC[N+](C)(C)[O-] [C12PDA] |  |  |  | 31 (≈ 103 µM) | 18.8 (≈ 62.6 µM) | 89.4 | 116 | 51.9 (≈ 173 µM) | 49.8 (≈ 166 µM) | 55.5 | 44.8 |  | 0.000905 |  | 1.96 | 59 | 24
CCCCCCCCCCCCCC(=O)N(CCC[N+](C)(C)[O-])CCC[N+](C)(C)[O-] [C14(DAPANO)2] | not significant decrease in radical level | 8.0·10^−4 a M | not significant decrease in radical level | 32 (≈ 74.5 µM) | 17 (≈ 39.6 µM) | 11.3 | 4.5 | 68.5 (≈ 159 µM) | 0.89 (≈ 2.07 µM) | 17.7 | 11.5 | 2.28 ^a nm | 0.00117 | 16 |  |  | 
CCCCCCCCCCCCCCCC(=O)NCCC[N+](C)(C)[O-] [C16PDA] |  |  |  | 48.1 (≈ 135 µM) | 9.8 (≈ 27.5 µM) | 140 | 123 | 44.1 (≈ 124 µM) | 1.9 (≈ 5.33 µM) | 96.9 | 81.7 |  | 0.00125 |  | 2.27 |  | 
CCCCCCCCCCCCCC(=O)NCCC[N+](C)(C)[O-] [C14PDA] | most significant decrease of fluorescence level |  | most significant decrease of fluorescence level | 48.1 (≈ 146 µM) | 9.9 (≈ 30.1 µM) | 81.1 | 119 | 69.9 (≈ 213 µM) | 1.6 (≈ 4.87 µM) | 104 | 78.2 |  | 0.00101 |  | 2.19 |  | 
CCCCCCCCCC(=O)N(CCC[N+](C)(C)[O-])CCC[N+](C)(C)[O-] [C10(DAPANO)2] |  | 3.0·10^−2 a M |  | 98 (≈ 262 µM) | 97 (≈ 260 µM) | 8.1 | 18.2 | 34.5 (≈ 92.3 µM) | 1.9 (≈ 5.09 µM) | 16.2 | 9.7 | 1.75 ^a nm | 0.000947 | 11 |  |  | 
